According to PubChem BioAssay AID330 (DTP/NCI, 2004):
Where “and” joins values, the source holds several entries; their conditions need not be identical. Equal entries are not always repeated. Inconclusive results and toxic doses are left out.

System: P388 leukemia ip, CD2F1 mice, survival T/C
Experiment: NCI In Vivo Anticancer Drug Screen. Data for tumor model P388 Leukemia (intraperitoneal) in CD2F1 (CDF1) mice
Settings: endpoint: median survival time, higher = longer survival
Outline: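 Mice carrying the transplanted tumor received test compound or vehicle. Survival was recorded in each group, and the value is the treated-group measurement divided by that of the vehicle-treated control group.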

[1] = dose: 25.0 mg/kg/injection, schedule: Q01DX009 (ip), vehicle: saline
[2] = dose: 50.0 mg/kg/injection, schedule: Q01DX009 (ip), vehicle: saline
[3] = dose: 100.0 mg/kg/injection, schedule: Q01DX009 (ip), vehicle: saline

`CCCCCOC(=O)c1ccc(O)cc1` was tested, and the T/C (dose: 12.5 mg/kg/injection, schedule: Q01DX009 (ip), vehicle: saline with Tween-80) was 108 % of control, the T/C (dose: 25.0 mg/kg/injection, schedule: Q01DX009 (ip), vehicle: saline with Tween-80) was 100 % of control and the T/C (dose: 50.0 mg/kg/injection, schedule: Q01DX009 (ip), vehicle: saline with Tween-80) was 99 % of control and 100 % of control. The T/C (dose: 100.0 mg/kg/injection, schedule: Q01DX009 (ip), vehicle: saline with Tween-80) was 94 % of control.

`CC1=NC2=NC(CCCC(=O)N3CCCCC3)=NC3=CC=CC(=N1)N32` was tested, and the T/C [1] was 104 % of control, the T/C [2] was 101 % of control and the T/C [3] was 103 % of control.

In the case of `CC(C)CC(C)NC(=O)Nc1ccc(Cc2ccc(NC(=O)NC(C)CC(C)C)cc2)cc1` (configuration not stated), the T/C (dose: 50.0 mg/kg/injection, schedule: Q01DX009 (ip), vehicle: Klucel (hydroxypropylcellulose) (HPC)) is reported as 96 % of control, the T/C (dose: 100.0 mg/kg/injection, schedule: Q01DX009 (ip), vehicle: Klucel (hydroxypropylcellulose) (HPC)) is reported as 97 % of control and the T/C (dose: 200.0 mg/kg/injection, schedule: Q01DX009 (ip), vehicle: Klucel (hydroxypropylcellulose) (HPC)) is reported as 93 % of control.

`COc1cc(C(=O)O)on1` was tested, and the T/C [1] was 103 % of control, the T/C [2] was 99 % of control and the T/C [3] was 89 % of control and 96 % of control.

With `c1ccc2c(N3CCCCC3)ncnc2c1` the T/C (dose: 50.0 mg/kg/injection, schedule: Q01DX005 (ip), vehicle: saline) was 107 % of control and the T/C (dose: 100.0 mg/kg/injection, schedule: Q01DX005 (ip), vehicle: saline) was 100 % of control.

In the case of `COc1cccc2c1C(=O)c1c(O)c3c(c(O)c1C2=O)C[C@@](O)(C(O)O)C[C@@H]3OC1CC(N)C(O)C(C)O1` (some centres not stated), the T/C (dose: 2.0 mg/kg/injection, schedule: Q01DX009 (ip), vehicle: water) is reported as 168 % of control, the T/C (dose: 4.0 mg/kg/injection, schedule: Q01DX009 (ip), vehicle: water) is reported as 154 % of control and the T/C (dose: 100.0 mg/kg/injection, schedule: Q04DX003 (ip), vehicle: water) is reported as 109 % of control and 121 % of control.

`CCCCOc1ccc2nc(C)cc(N=[N+]=[N-])c2c1` was tested, and the T/C (dose: 30.0 mg/kg/injection, schedule: Q01DX005 (ip), vehicle: saline with Tween-80) was 94 % of control, the T/C (dose: 60.0 mg/kg/injection, schedule: Q01DX005 (ip), vehicle: saline with Tween-80) was 86 % of control and 94 % of control and the T/C (dose: 120.0 mg/kg/injection, schedule: Q01DX005 (ip), vehicle: saline with Tween-80) was 97 % of control. The T/C (dose: 240.0 mg/kg/injection, schedule: Q01DX005 (ip), vehicle: saline with Tween-80) was 92 % of control.

With `CCOc1nc(N)nc(C)c1N=Nc1cccc(Cl)c1` the T/C (dose: 60.0 mg/kg/injection, schedule: Q01DX005 (ip), vehicle: Klucel + Tween-80) was 101 % of control, the T/C (dose: 120.0 mg/kg/injection, schedule: Q01DX005 (ip), vehicle: Klucel + Tween-80) was 107 % of control and the T/C (dose: 240.0 mg/kg/injection, schedule: Q01DX005 (ip), vehicle: Klucel + Tween-80) was 100 % of control.

For `Cc1ccc(N2[C@H]3CCCN3c3ccc(C)cc3[C@@H]2C(F)(F)F)cc1`, the T/C (dose: 50.0 mg/kg/injection, schedule: Q01DX005 (ip), vehicle: saline with Tween-80) was 110 % of control, the T/C (dose: 100.0 mg/kg/injection, schedule: Q01DX005 (ip), vehicle: saline with Tween-80) was 100 % of control and the T/C (dose: 200.0 mg/kg/injection, schedule: Q01DX005 (ip), vehicle: saline with Tween-80) was 100 % of control.

`N#Cc1ccc(NN=O)nc1` was tested, and the T/C (dose: 3.13 mg/kg/injection, schedule: Q01DX009 (ip), vehicle: water) was 116 % of control and 123 % of control, the T/C (dose: 6.25 mg/kg/injection, schedule: Q01DX009 (ip), vehicle: water) was 159 % of control and the T/C (dose: 12.5 mg/kg/injection, schedule: Q01DX009 (ip), vehicle: water) was 151 % of control and 169 % of control. For the same compound, the T/C (dose: 25.0 mg/kg/injection, schedule: Q01DX009 (ip), vehicle: water) was 194 % of control and 268 % of control.

In the case of `CCC1(O)OC(=O)C(C)=C1C` (configuration not stated), the T/C (dose: 12.5 mg/kg/injection, schedule: Q04DX003 (ip), vehicle: saline) is reported as 98 % of control, the T/C (dose: 25.0 mg/kg/injection, schedule: Q04DX003 (ip), vehicle: saline) is reported as 95 % of control and the T/C (dose: 50.0 mg/kg/injection, schedule: Q04DX003 (ip), vehicle: saline) is reported as 99 % of control.

`CCc1ccc2nc3ccccc3c(NCCCCCCNc3c4ccccc4nc4ccc(CC)cc34)c2c1` was tested, and the T/C (dose: 0.62 mg/kg/injection, schedule: Q01DX009 (ip), vehicle: other) was 100 % of control, the T/C (dose: 1.25 mg/kg/injection, schedule: Q01DX009 (ip), vehicle: other) was 114 % of control and the T/C (dose: 2.5 mg/kg/injection, schedule: Q01DX009 (ip), vehicle: other) was 105 % of control. For the same compound, the T/C (dose: 5.0 mg/kg/injection, schedule: Q01DX009 (ip), vehicle: other) was 116 % of control and the T/C (dose: 10.0 mg/kg/injection, schedule: Q01DX009 (ip), vehicle: other) was 124 % of control.

`NNC(=O)CCC(=O)NN` was tested, and the T/C (dose: 100.0 mg/kg/injection, schedule: Q04DX002 (ip), vehicle: saline) was 101 % of control and the T/C (dose: 200.0 mg/kg/injection, schedule: Q04DX002 (ip), vehicle: saline) was 96 % of control.
